“Also recorded” adds a separate entry of the source. Ends that are not written are not given here. * marks the point of attachment. Biotin = O=C1N[C@H]2[C@H](CS[C@H]2CCCCC(=O)*)N1
Assays:
[1] = system: anti-CD3 stimulation of CBA spleen cells; assay: Anti-CD3 stimulation ([3H]-TdR incorporation); format: cell-based, mouse; details: for inhibition of anti-CD3 stimulation: result in words
Method: Anti-CD3 Stimulation and Mixed Lymphocyte Culture. Spleen cells isolated from CBA mice were stimulated (2×10^5/well) with anti-CD3 monoclonal antibody (Pharmingen, San Diego) at a final concentration of 0.1 to 1 μg/ml in 96-well, round-bottom microculture plates (Nunc, Denmark). Peptides at various concentrations were added at the beginning of the culture. Cells were incubated for a period of 3 days at 37° C., 5% CO2. Twenty-four hours before harvesting 1 μCi[^3H]-TdR (Amersham, Arlington Heights, Ill.) was added to individual wells. Cells were then harvested using a Filtermate 196 Harvester (Packard, Downers Grove, Ill.) and the degree of thymidine incorporation was measured using a TopCount Microplate Scintillation Counter (Packard). For MLR, CBA spleen cells were used as responders and B6 spleen cells as stimulators. B6 spleen cells were pre- treated with mitomycin-C (Calbiochem, La Jolla, Calif.) at 0.5 mg/ml for 20 min at 36° C. Cells were then washed three times to remove excess mitomycin-C. CBA spleen cells (2×10^5/well) were cultured with an equal number of mitomycin C-treated B6 cells in serum-free Aim V medium for periods of 3 to 6 days. One microcurie of [^3H]-TdR was added to the culture 24 hour before cell harvesting and the degree of thymidine incorporation was quantified as described above.

[2] = system: CTL activity (CBA to B6 effector cells, EL4 target cells); assay: Cytotoxic T cell activity (51Cr release); format: cell-based, mouse; details: for inhibition of CTL activity: result in words
Method: Cytotoxic T Cell Activity. To assay the effect of peptides on cytotoxic T cell activity, CBA to B6 effector cells were prepared following a 6-day culture of 4×10^6 CBA spleen cells with 5×10^6 mitomycin-treated B6 spleen cells in wells of a 24 well plate (Nuncion Delta, Nunc, Denmark) in RPMI-1640 with 10% FBS. Effector cells were then harvested and washed. EL4 (H-2^b), a mouse lymphoma induced in C57BL/6N was used as target cells. Cultured EL4 cells were maintained and sub-cultured once every three days […] Effector (E) and target (T) cells were then added into V-shaped tissue culture plates (Nunc, Denmark) at E:T ratios of 3:1, 10:1, 30:1, 100:1, respectively. Peptides were diluted to the working concentrations with R-10 medium and added at the beginning of the 4-hour incubation period. For the determination of maximal release, 1% Triton X-100 was added to separate wells. Plates were then centrifuged for 2 min to increase cellular contact before the 4-hour incubation period. After incubation, 75 μl supernatant from each well was collected and the amount of ^51Cr was counted using a TopCount Scintillation Counter. The degree of cell lysis was calculated using the formula below: [formula]

[3] = system: NK cell activity (killing of YAC-1 cells by CBA spleen cells); assay: NK cell activity (51Cr release); format: cell-based, mouse; details: YAC-1 targets, freshly isolated CBA spleen cells
Method: NK Cell Activity. YAC-1, a mouse lymphoma which was induced by inoculation of Moloney leukemia virus into a newborn A/Sn mouse was used as the NK cell target (ATCC TIB 160). Four thousand sodium chromate labeled YAC-1 cells were cultured with different concentrations of freshly isolated CBA spleen cells (effector to target ratios: 62.5:1, 125:1, 250:1, 500:1) in V-shaped bottom plates with RPMI-1640 containing 10% FBS for 4 h at 37° C., 5% CO2. The degree of cell lysis was quantified by the release of ^51Cr into the supernatants. After incubation, plates were centrifuged and 75 μl of supernatant was collected. The degree of cell lysis was measured using a TopCount Scintillation Counter. The degree of cell lysis was calculated using the formula below: [formula]

[4] = system: human peripheral blood lymphocytes; assay: Staining of PBLs with biotinylated peptide panel; format: binding; details: for binding to PBLs: 50 μg/ml biotinylated peptide; for binding on resting lymphocytes: majority of binding on macrophage/polymorphonuclear leukocytes population
From the text: (§1) In the next study, human peripheral blood lymphocytes were isolated and stained with the biotinylated peptide panel. […] Using human and murine cell lines, a spectrum of binding affinity was observed.

Jurkat cell line E6-1 = assay: Binding of biotinylated peptide to cell lines; details: among human and murine cell lines
From the text: as §1

[5] = system: anti-H2b CTL effector population; assay: Binding of biotinylated peptide to CTL effectors; parameters: species or system mouse; details: cells activated (IL-2 receptor expression)
[6] = system: B6 hearts in CBA recipients; assay: Heterotopic heart transplantation; format: in vivo, mouse; details: 10 mg/kg/day, day 0 to day 10; untreated MST 7.5+/−1.1; p=0.0007
Method: The in vivo immunosuppressive activity of the peptides was evaluated in heterotopic heart transplantation in the model described by Ono and Lindsey, (J Thorac Cardiovasc Surg 1969, 7:225). CBA recipients of B6 hearts were treated 10 mg/kg/day of p15 from day 0 to day 10 after transplantation. Untreated recipients rejected the allografts between day 6 and 10 (MST=7.5+/−1.1 days). Treatment of recipients with p15 lead to a significant increase of graft survival (MST=14.4+/−1.5 days, p vs control=0.0007; Mann-Whitney Test).

Substance | inhibition of anti-CD3 stimulation at 5 μg/ml [1] | inhibition of anti-CD3 stimulation at 50 μg/ml [1] | inhibition of anti-CD3 stimulation [1] | inhibition of CTL activity [2] | also measured
3: Bt-SGSG-RENLRTALRY (Biotin-SGSGRENLRTALRY-OH) [compound 3] | substantially less inhibition | substantially complete inhibition | inhibit the anti-CD3 stimulation in a dose dependent manner |  | 
4: Bt-SGSG-RVNLRTALRY [compound 4] |  |  |  | inhibitory activity substantially greater than contol | 
16: Bi-SGSG-LRIALRYYWD [compound 16] | substantially less inhibition | substantially complete inhibition | inhibit the anti-CD3 stimulation in a dose dependent manner | inhibitory activity substantially greater than contol | 
17: Bt-SGSG-IALRYYWDS [compound 17] | substantially less inhibition | substantially complete inhibition | inhibit the anti-CD3 stimulation in a dose dependent manner |  | 
19: Bt-SGSG-LRYYWDSEA [compound 19] |  |  |  | inhibitory activity substantially greater than contol | 
20: Bt-SGSG-RIALRAAA [compound 20] |  |  |  | inhibitory activity substantially greater than contol | 
23: Bt-SGSG-NLRIALRY [compound 23] |  |  |  | inhibitory activity substantially greater than contol | 
27: Bt-SGSG-QTDRENLRIA [compound 27] | significant levels of inhibition |  |  | inhibitory activity substantially greater than contol | 
34: Bt-SGSG-REALRIALRY [compound 34] |  |  |  | inhibitory activity substantially greater than contol | 
40: Bt-SGSG-RENLRIALRA [compound 40] | substantially less inhibition | substantially complete inhibition | inhibit the anti-CD3 stimulation in a dose dependent manner |  | 
41: Bt-SGSG-RVDLRTLRGY [compound 41] | substantially less inhibition | substantially complete inhibition | inhibit the anti-CD3 stimulation in a dose dependent manner |  | 
42: Bt-SGSG-RVSLRNLRGY [compound 42] | significant levels of inhibition | substantially complete inhibition | inhibit the anti-CD3 stimulation in a dose dependent manner |  | 
43: Bt-SGSG-RVNLRTLRRY; marked E in the table [compound 43] | significant levels of inhibition | substantially complete inhibition | inhibit the anti-CD3 stimulation in a dose dependent manner |  | 
Bt-SGSG-NLRIALRYYW; positions 77–85 terminating with tryptophan (Biotin-SGSGNLRIALRYYW-OH) [peptide 15] | substantially less inhibition | substantially complete inhibition | inhibit the anti-CD3 stimulation in a dose dependent manner | inhibited CTL activity; also recorded: highest degree of inhibition | CTL inhibition across different MHC combinations ([2]; H2k>H2b, H2d>H2b, H2k>H2d strain combinations): greater activity than B2702 monomer; also recorded: non-MHC restricted; percentage lysis in presence of peptide ([2]; lysis without peptide 42%): 7%; inhibition of NK cell killing [3]: able to inhibit the killing of YAC-1; binding to PBLs [4]: bound to the PBLs; binding on resting lymphocytes [4]: little or no binding on resting lymphocytes; degree of binding to cell line (Jurkat cell line E6-1): highest degree of binding; binding to activated CTL effector cells [5]: binding of peptide 15 was observed; graft survival MST [6]: 14.4 ± 1.5 days
Bue-1: 2702 MAP; no sequence printed in the table (SGSGRENLRIALRY; not fully specified; also: MAP construct) | substantially less inhibition | substantially complete inhibition | inhibit the anti-CD3 stimulation in a dose dependent manner |  | 
Bue-3: ENLRIALR | substantially less inhibition | substantially complete inhibition | inhibit the anti-CD3 stimulation in a dose dependent manner |  | 
Bue-4: ENLRIAL | substantially less inhibition | substantially complete inhibition | inhibit the anti-CD3 stimulation in a dose dependent manner |  | 
Bue-5: NLRIAL | significant levels of inhibition | substantially complete inhibition | inhibit the anti-CD3 stimulation in a dose dependent manner |  | 
Woo-2: Bt-SGSG-RENLRIALRY (Biotin-SGSGRENLRIALRY-OH) | substantially less inhibition | substantially complete inhibition | inhibit the anti-CD3 stimulation in a dose dependent manner |  | 
peptide 2: Bi-SGSG-RVNLRIALRY (Biotin-SGSGRVNLRIALRY-OH) | substantially less inhibition | substantially complete inhibition | inhibit the anti-CD3 stimulation in a dose dependent manner | inhibited CTL activity | binding to PBLs [4]: bound to the PBLs; binding on resting lymphocytes [4]: little or no binding on resting lymphocytes

Reference: patent publication US6982246B1, “Cytomodulating peptide for inhibiting lymphocyte activity” (SangStat Medical Corporation, priority 1995, dated 2006)
